Here are results for one compound from patent publication US20110237672A1, “Use of a cysteine-containing substance to increase the ventilatory activity and erythropoietin production” (2458781 CANADA INC., priority 2001, published 2011).

Format in all cases: in vivo, human
A short description of assay [1]: placebo-controlled double-blind study: plasma acid soluble thiol and thiol/disulfide redox status. To be noted: healthy male subjects, NAC three doses of 600 mg per day, vs placebo-treated group. The protocol: (§1) The placebo-controlled double-blind study was performed with healthy, normotonic male non-smoking subjects. The subjects had not taken alcohol, caffeine, or any medication at least during the last 24 hours prior to the study. Also, they had not been engaged in extensive physical exercise for at least 12 hours prior to the study. Twenty-eight subjects were recruited into the study and randomized for the treatment with NAC or placebo. NAC (200 mg capsules) or placebo were administered in three doses of 600 mg per day at 8.00 a.m., 4.00 p.m. and 11.00 p.m. The plasma concentrations of acid soluble thiol (mainly cysteine) and cystine (cysteine disulfide) were determined in the cubital venous blood by a photometric assay and by the amino acid analyzer, respectively. […] The EPO concentration in serum was determined by the help of a commercial EPO ELISA kit.

In another assay the test system is oxygen sensors. Briefly: placebo-controlled double-blind study: isocapnic hypoxic ventilatory response. The protocol: The placebo-controlled double-blind study was performed with healthy, normotonic male non-smoking subjects. The subjects had not taken alcohol, caffeine, or any medication at least during the last 24 hours prior to the study. Also, they had not been engaged in extensive physical exercise for at least 12 hours prior to the study. Twenty-eight subjects were recruited into the study and randomized for the treatment with NAC or placebo. NAC (200 mg capsules) or placebo were administered in three doses of 600 mg per day at 8.00 a.m., 4.00 p.m. and 11.00 p.m. In addition, the hypoxic ventilatory response of the subjects was quantitatively determined. The ventilatory activity was determined under two different experimental conditions using an equipment of oxychon-beta. The first measurement, the so-called “isocapnic hypoxic ventilatory response” (isocapnic HVR), was tested under normoxic conditions, i.e., under conditions of normal oxygen concentration and constant carbon dioxide concentration. The second measurement, the so-called poikilocapnic hypoxic ventilatory response (poikilocapnic HVR), was determined under normobaric conditions in a hypoxia chamber with a constant FiO2 of 12%. The term “poikilocapnic” describes study conditions characterized by a variable carbon dioxide concentration in the expiratory air, whereas the term “isocapnic” refers to conditions with a constant carbon dioxide concentration.

The next assay deals with erythropoietin (EPO). Description: placebo-controlled double-blind study: EPO concentration by EPO ELISA kit. The protocol:
as §1
On the technique in general: In an ELISA, binding on a coated surface is turned into a signal by an enzyme label.

The mark [2] stands for this setting: summary statement of the placebo-controlled double-blind study.

`CC(=O)N[C@@H](CS)C(=O)O` [NAC, N-acetylcysteine]: the “plasma thiol concentration (T), relative change” value in assay [1] (P<0.01 (FIG. 1)) is “significantly increased”. In assay [1] (P<0.05 (FIG. 1)), the “plasma thiol/disulfide redox status (thiol^2 disulfide^−1), relative change” value was “increased”. Besides, in the assay on oxygen sensors (before vs 4 days after start of treatment, P value <0.01 (FIG. 2)), the “increase in ventilatory activity (H, isocapnic hypoxic ventilatory response) between time 1 and time 2” value is recorded as “significantly different from that of the placebo-treated control group”. The “isocapnic hypoxic ventilatory response (H), relative change” value with oxygen sensors (healthy male subjects, NAC three doses of 600 mg per day, vs placebo-treated group (FIG. 1)) is “significantly increased”. For the same compound, the ventilatory activity result with oxygen sensors (setting [2]) is reported as “increase”. Besides, in the assay on erythropoietin (EPO) (2 hrs after the 6-hr-exposure to the hypoxia chamber, vs placebo-treated group, P<0.05 (FIG. 1)), the “plasma EPO concentration after exposure to the hypoxia chamber (Eh), relative change” value is “increased”. Moreover, the “plasma EPO concentration (E), relative change” value with erythropoietin (EPO) (before exposure to the hypoxia chamber, vs placebo-treated group, P<0.05 (FIG. 1)) is listed as “increased”. Further, the “increase in plasma EPO concentration (E) between time 1 and time 2” value with erythropoietin (EPO) (before vs 5 days after start of treatment, P value <0.05 (FIG. 2)) is listed as “significantly different from that of the placebo-treated control group”. Also, the plasma erythropietin concentration result in the assay with erythropoietin (EPO) (setting [2]) is “increase”.
